According to ChEMBL document CHEMBL3885881, “DrugMatrix”:

Species: Rattus norvegicus
Assay: DrugMatrix - Regimen: Daily Repeat
Type: toxicity, organism-based, Sprague-Dawley
Design: regimen Daily Repeat, gender Male, age 6-8 weeks
Settings: in vivo, po, route oral GAVAGE, vehicle .5 % CMC; for ABSOLUTE BASOPHIL / ABSOLUTE EOSINOPHIL / ABSOLUTE LYMPHOCYTE / ABSOLUTE MONOCYTE / ABSOLUTE SEGMENTED NEUTROPHIL / BASOPHIL / EOSINOPHIL / ERYTHROCYTE COUNT / HEMATOCRIT / HEMOGLOBIN / LEUKOCYTE COUNT / LYMPHOCYTE / MEAN CORPUSCULAR HEMOGLOBIN / MEAN CORPUSCULAR HEMOGLOBIN CONCENTRATION / MEAN CORPUSCULAR VOLUME / MONOCYTE / NEUTROPHIL / NUCLEATED RED BLOOD CELLS / PLATELET COUNT: tissue Blood; for ALANINE AMINOTRANSFERASE / ALBUMIN / ALKALINE PHOSPHATASE / ASPARTATE AMINOTRANSFERASE / BLOOD UREA NITROGEN / CARBON DIOXIDE / CHLORIDE / CHOLESTEROL / CREATINE PHOSPHOKINASE / CREATININE / GLUCOSE / LACTATE DEHYDROGENASE / LIPASE / PHOSPHORUS / POTASSIUM / SODIUM / TOTAL BILIRUBIN / TOTAL PROTEIN / URIC ACID: tissue Plasma
[1] = 88 mg/kg, 72 h, dose level Low, time 3 day
[2] = 88 mg/kg, 120 h, dose level Low, time 5 day
[3] = 750 mg/kg, 72 h, dose level High, time 3 day
[4] = 750 mg/kg, 120 h, dose level High, time 5 day

CCC1(c2ccccc2)C(=O)NCNC1=O [PRIMIDONE]
ABSOLUTE BASOPHIL [1]: 0 CELLS/uL
ABSOLUTE EOSINOPHIL [1]: 207.67 CELLS/uL
ABSOLUTE LYMPHOCYTE [1]: 14556.33 CELLS/uL
ABSOLUTE MONOCYTE [1]: 206 CELLS/uL
ABSOLUTE SEGMENTED NEUTROPHIL [1]: 1063.33 CELLS/uL
BASOPHIL [1]: 0%
EOSINOPHIL [1]: 1.33%
ERYTHROCYTE COUNT [1]: 5.49 x10E6/uL
HEMATOCRIT [1]: 34.53%
HEMOGLOBIN [1]: 13.03 G/DL
LEUKOCYTE COUNT [1]: 16.03 x10E3/uL
LYMPHOCYTE [1]: 90.67%
MEAN CORPUSCULAR HEMOGLOBIN [1]: 23.87 pg
MEAN CORPUSCULAR HEMOGLOBIN CONCENTRATION [1]: 37.8 G/DL
MEAN CORPUSCULAR VOLUME [1]: 63.07 fL
MONOCYTE [1]: 1.33%
NEUTROPHIL [1]: 6.67%
NUCLEATED RED BLOOD CELLS [1]: 0 /100WBC
PLATELET COUNT [1]: 1338 x10E3/uL
ALANINE AMINOTRANSFERASE [1]: 44.67 u/L
ALBUMIN [1]: 4.17 G/DL
ALKALINE PHOSPHATASE [1]: 329.33 u/L
ASPARTATE AMINOTRANSFERASE [1]: 77.33 u/L
BLOOD UREA NITROGEN [1]: 15 mg/dL
CARBON DIOXIDE [1]: 25.33 mmol/L
CHLORIDE [1]: 105.33 MEQ/L
CHOLESTEROL [1]: 72 mg/dL
CREATINE PHOSPHOKINASE [1]: 356 u/L
CREATININE [1]: 0.16 mg/dL
GLUCOSE [1]: 157.67 mg/dL
LACTATE DEHYDROGENASE [1]: 80 u/L
LIPASE [1]: 9 u/L
PHOSPHORUS [1]: 13.8 mg/dL
POTASSIUM [1]: 6.58 MEQ/L
SODIUM [1]: 144.83 MEQ/L
TOTAL BILIRUBIN [1]: 0.2 mg/dL
TOTAL PROTEIN [1]: 5.83 G/DL
URIC ACID [1]: 1.93 mg/dL
ABSOLUTE BASOPHIL [2]: 0 CELLS/uL
ABSOLUTE EOSINOPHIL [2]: 87 CELLS/uL
ABSOLUTE LYMPHOCYTE [2]: 14869 CELLS/uL
ABSOLUTE MONOCYTE [2]: 252 CELLS/uL
ABSOLUTE SEGMENTED NEUTROPHIL [2]: 1292 CELLS/uL
BASOPHIL [2]: 0%
EOSINOPHIL [2]: 0.33%
ERYTHROCYTE COUNT [2]: 5.5 x10E6/uL
HEMATOCRIT [2]: 34.07%
HEMOGLOBIN [2]: 13.03 G/DL
LEUKOCYTE COUNT [2]: 16.5 x10E3/uL
LYMPHOCYTE [2]: 91.33%
MEAN CORPUSCULAR HEMOGLOBIN [2]: 23.67 pg
MEAN CORPUSCULAR HEMOGLOBIN CONCENTRATION [2]: 38.3 G/DL
MEAN CORPUSCULAR VOLUME [2]: 61.9 fL
MONOCYTE [2]: 1.33%
NEUTROPHIL [2]: 7%
NUCLEATED RED BLOOD CELLS [2]: 0 /100WBC
PLATELET COUNT [2]: 1298.67 x10E3/uL
ALANINE AMINOTRANSFERASE [2]: 49.67 u/L
ALBUMIN [2]: 3.93 G/DL
ALKALINE PHOSPHATASE [2]: 300.67 u/L
ASPARTATE AMINOTRANSFERASE [2]: 79.67 u/L
BLOOD UREA NITROGEN [2]: 16.67 mg/dL
CARBON DIOXIDE [2]: 27.67 mmol/L
CHLORIDE [2]: 106.67 MEQ/L
CHOLESTEROL [2]: 63.67 mg/dL
CREATINE PHOSPHOKINASE [2]: 421.67 u/L
CREATININE [2]: 0.21 mg/dL
GLUCOSE [2]: 162 mg/dL
LACTATE DEHYDROGENASE [2]: 161 u/L
LIPASE [2]: 8.67 u/L
PHOSPHORUS [2]: 13.87 mg/dL
POTASSIUM [2]: 6.54 MEQ/L
SODIUM [2]: 145.5 MEQ/L
TOTAL BILIRUBIN [2]: 0.2 mg/dL
TOTAL PROTEIN [2]: 6.03 G/DL
URIC ACID [2]: 2.03 mg/dL
ABSOLUTE BASOPHIL [3]: 0 CELLS/uL
ABSOLUTE EOSINOPHIL [3]: 107 CELLS/uL
ABSOLUTE LYMPHOCYTE [3]: 6934.67 CELLS/uL
ABSOLUTE MONOCYTE [3]: 246.33 CELLS/uL
ABSOLUTE SEGMENTED NEUTROPHIL [3]: 1312 CELLS/uL
BASOPHIL [3]: 0%
EOSINOPHIL [3]: 1%
ERYTHROCYTE COUNT [3]: 6.1 x10E6/uL
HEMATOCRIT [3]: 37.33%
HEMOGLOBIN [3]: 14.33 G/DL
LEUKOCYTE COUNT [3]: 8.6 x10E3/uL
LYMPHOCYTE [3]: 79.33%
MEAN CORPUSCULAR HEMOGLOBIN [3]: 23.6 pg
MEAN CORPUSCULAR HEMOGLOBIN CONCENTRATION [3]: 38.3 G/DL
MEAN CORPUSCULAR VOLUME [3]: 61.67 fL
MONOCYTE [3]: 3%
NEUTROPHIL [3]: 16.67%
NUCLEATED RED BLOOD CELLS [3]: 0.33 /100WBC
PLATELET COUNT [3]: 1338.67 x10E3/uL
ALANINE AMINOTRANSFERASE [3]: 48.5 u/L
ALBUMIN [3]: 4.73 G/DL
ALKALINE PHOSPHATASE [3]: 307 u/L
ASPARTATE AMINOTRANSFERASE [3]: 85 u/L
BLOOD UREA NITROGEN [3]: 15.5 mg/dL
CARBON DIOXIDE [3]: 26.33 mmol/L
CHLORIDE [3]: 107.5 MEQ/L
CHOLESTEROL [3]: 66.67 mg/dL
CREATINE PHOSPHOKINASE [3]: 138 u/L
CREATININE [3]: 0.24 mg/dL
GLUCOSE [3]: 144.33 mg/dL
LACTATE DEHYDROGENASE [3]: 137.33 u/L
LIPASE [3]: 8.5 u/L
PHOSPHORUS [3]: 10.5 mg/dL
POTASSIUM [3]: 5.94 MEQ/L
SODIUM [3]: 150.9 MEQ/L
TOTAL BILIRUBIN [3]: 0.3 mg/dL
TOTAL PROTEIN [3]: 6.2 G/DL
URIC ACID [3]: 1 mg/dL
ABSOLUTE BASOPHIL [4]: 0 CELLS/uL
ABSOLUTE EOSINOPHIL [4]: 136.67 CELLS/uL
ABSOLUTE LYMPHOCYTE [4]: 11870 CELLS/uL
ABSOLUTE MONOCYTE [4]: 38.33 CELLS/uL
ABSOLUTE SEGMENTED NEUTROPHIL [4]: 755 CELLS/uL
BASOPHIL [4]: 0%
EOSINOPHIL [4]: 1%
ERYTHROCYTE COUNT [4]: 5.98 x10E6/uL
HEMATOCRIT [4]: 37.3%
HEMOGLOBIN [4]: 13.87 G/DL
LEUKOCYTE COUNT [4]: 12.8 x10E3/uL
LYMPHOCYTE [4]: 92.67%
MEAN CORPUSCULAR HEMOGLOBIN [4]: 23.17 pg
MEAN CORPUSCULAR HEMOGLOBIN CONCENTRATION [4]: 37.17 G/DL
MEAN CORPUSCULAR VOLUME [4]: 62.37 fL
MONOCYTE [4]: 0.33%
NEUTROPHIL [4]: 6%
NUCLEATED RED BLOOD CELLS [4]: 0 /100WBC
PLATELET COUNT [4]: 1320.33 x10E3/uL
ALANINE AMINOTRANSFERASE [4]: 59.67 u/L
ALBUMIN [4]: 4.13 G/DL
ALKALINE PHOSPHATASE [4]: 421 u/L
ASPARTATE AMINOTRANSFERASE [4]: 98.33 u/L
BLOOD UREA NITROGEN [4]: 15 mg/dL
CARBON DIOXIDE [4]: 25.33 mmol/L
CHLORIDE [4]: 105.33 MEQ/L
CHOLESTEROL [4]: 68.33 mg/dL
CREATINE PHOSPHOKINASE [4]: 186.67 u/L
CREATININE [4]: 0.18 mg/dL
GLUCOSE [4]: 159.33 mg/dL
LACTATE DEHYDROGENASE [4]: 96 u/L
LIPASE [4]: 9 u/L
PHOSPHORUS [4]: 13.2 mg/dL
POTASSIUM [4]: 6.32 MEQ/L
SODIUM [4]: 146.03 MEQ/L
TOTAL BILIRUBIN [4]: 0.2 mg/dL
TOTAL PROTEIN [4]: 6.17 G/DL
URIC ACID [4]: 2.07 mg/dL
